The data set can be described thus: in vitro. The conditions noted are these: human.

Usually half-life stands for how long it takes for the measured level to halve. High values mean slow decline, low ones rapid decline. Take `N[C@@H](CC(=O)N1CCC[C@H]1COCC1CC1)Cc1cc(F)c(F)cc1F`: under “microsomes”, the half-life at 0.75 h, 3 µM was found to be 30 min. Take `N[C@@H](CC(=O)N1CCC[C@H]1CNC(=O)CC(F)(F)F)Cc1cc(F)c(F)cc1F`: the half-life at 0.75 h, 3 µM (liver microsomes) was above 120 min.

In turn, `N[C@@H](CC(=O)N1CCC[C@H]1CNC(=O)C1CCCC1)Cc1cc(F)c(F)cc1F` displayed a half-life at 0.75 h, 3 µM (liver microsomes) of 71 min.

Consider `N[C@@H](CC(=O)N1CCC[C@H]1CNC(=O)C1CCC1)Cc1cc(F)c(F)cc1F`, for which, under “liver microsomes”, the half-life at 0.75 h, 3 µM turned out to be 38 min.
